Reference: patent EP4574151A1, “INHIBITORS OF G12V-MUTATED RAS PROTEIN TO TREAT CANCER” (Personather Spolka Z Ograniczona Odpowiedzialnoscia, priority 2023, dated 2025)
“Also recorded” adds a separate entry of the source.

Test system: SW480 cell line
Assay: Western Blot analysis of the RAS-controlled signal transduction pathway in a cancer cell line expressing KRASG12V
Type: cell-based
Conditions: SW480 cell line with RASG12V mutation; 1, 5 and 10 µM; 24 hours; serum-free
Excerpt: Analysis of the impact of the tested compound on the signal transduction pathway controlled by RAS family proteins in cancer cell lines expressing KRASG12V based on the Western Blot method.
The example illustrates the impact of the PER154A and PER160A molecules on the signal transduction pathway in the cancer cell line SW480.
• 1. SW480 cell line at 80-90% confluence was rinsed with PBS without Mg2+ and Ca2+ ions. Remove PBS. • 2. Cells were detached from the vessel using Trypsin-EDTA (0.05%, 1x) for 1-3 minutes at 37°C. • 3. Cells were transferred to a 15 ml tube, centrifuged (200xg, 4 min) and suspended in DMEM High Glucose (HG) medium with 10% bovine serum and antibiotics. • 4. Cells were counted. • 5. 5x10^5 cells were added to each well of a 6-well plate for adherent culture. • 6. The above medium was replenished and left for approximately 24 hours.
• 7. Cells were washed 2-3 times with buffered saline solution without Mg2+ and Ca2+ ions. PBS was carefully removed each time. • 8. 2 ml of DMEM HG medium with antibiotics and without serum was added, left for approximately 24 hours.
• 9. The cells were washed 2-3 times with buffered saline without Mg2+ and Ca2+ ions. PBS was carefully removed each time. • 10. […]

Row | Structure (SMILES) | impact on downstream signal transduction pathways in relation to RASG12V (AKT, ERK phosphorylation)
1 | O=C(Nc1ccc2c(c1)OCCO2)c1ccc2c(c1)C1C3CCC(C3)C1C(c1ccccc1)N2 (centres unmarked) [PER154A] | Significant impact; also recorded: blocks
2 | O=C(Nc1ccc(F)cc1)c1ccc2c(c1)C1C3CCC(C3)C1C(c1ccccc1)N2 (centres unmarked) [PER160A] | Significant impact; also recorded: blocks
